Reference: patent US12643954B2, “Anti-CD36 antibodies and their use to treat cancer” (ONA Therapeutics, S.L., priority 2020, dated 2026)
Blank lines part the entries; values can stand above or below the molecule they belong to.

Columns and labels:
Detroit 562 cells = test: Detroit 562 orthotopic mouse model of oral cancer metastasis; format: in vivo; conditions: single agent; antibody 1 mg/kg i.p. daily, cisplatin 2 mg/kg twice weekly
Description: NOD scid gamma (NSG) (NOD.Cg-Prkdc^scidII2rg^tm1Wj1/SzJ) mice were purchased from Charles River and crossed in-house. All mice were housed under a regimen of 12h light/12h dark cycles and SPF conditions, and all procedures were evaluated and approved by the CEEA (Ethical Committee for Animal Experimentation) from the Government of Catalunya. SCC intra-tongue injection was performed as previously described (Oskarsson et al., 2014; Nieman et al., 2011). Briefly, mice were anesthetized by intraperitoneal injection with a mixture of 50 mg per kg of ketamine and 0.5 mg per kg of medetomidin, and SCC cells resuspended in 30 μl PBS were injected into each mouse tongue with a BD ultra-fine 6 mm needle. Mice were monitored for the luciferase bioluminescent signal immediately after injection (TO) and once weekly thereafter with a Xenogen IVIS Imaging System-100 (Caliper Life Sciences). Briefly, animals were injected by retro-orbital injection with 50 μl of D-luciferin (Promega) diluted in 1×PBS at 5 mg ml^−1. […] Data was quantified with the Living Image software version 4.4 (Caliper Life Sciences). Quantifications were calculated with unsaturated pixels. […]
Antibody treatments were administered via intraperitoneal (i.p.) injection daily at a dose of 1 mg/kg. […] Further, mouse body weight was measured twice weekly to update appropriate dosage amounts. […]

FaDu cells = test: FaDu orthotopic mouse model of oral cancer metastasis; format: in vivo; conditions: single agent
Description: NOD scid gamma (NSG) (NOD.Cg-Prkdc^scidII2rg^tm1Wj1/SzJ) mice were purchased from Charles River and crossed in-house. All mice were housed under a regimen of 12h light/12h dark cycles and SPF conditions, and all procedures were evaluated and approved by the CEEA (Ethical Committee for Animal Experimentation) from the Government of Catalunya. SCC intra-tongue injection was performed as previously described (Oskarsson et al., 2014; Nieman et al., 2011). Briefly, mice were anesthetized by intraperitoneal injection with a mixture of 50 mg per kg of ketamine and 0.5 mg per kg of medetomidin, and SCC cells resuspended in 30 μl PBS were injected into each mouse tongue with a BD ultra-fine 6 mm needle. Mice were monitored for the luciferase bioluminescent signal immediately after injection (TO) and once weekly thereafter with a Xenogen IVIS Imaging System-100 (Caliper Life Sciences). Briefly, animals were injected by retro-orbital injection with 50 μl of D-luciferin (Promega) diluted in 1×PBS at 5 mg ml^−1. Continuous administration of isofluorane gas was provided to ensure anesthetizing animals during imaging. Data was quantified with the Living Image software version 4.4 (Caliper Life Sciences). Quantifications were calculated with unsaturated pixels. Color scale minimum and maximum values are shown in pictures.
Studies on the combination of the effects of the ONA-0-v1 anti-CD36 antibody, both with and without cisplatin, were performed in NSG mice (immuno-deficient). The studies included both male and female mice. All mice were inoculated with commercially available FaDu (ATCC) cancer cells, transduced with a retroviral vector expressing luciferase and the green fluorescent protein (Luc-GFP). FaDu cells were derived from a squamous cell carcinoma (i.e., from an oral cancer). Prior to inoculation, the FaDu cells were cultured in a humidified incubator at 37° C. with 5% CO2, and were grown in EMEM (LONZA) supplemented with 5 μg ml^−1 penicillin/streptomycin and 10% FBS (GIBCO).
For each mouse, 100,000 FaDu cells were inoculated via orthotopic injection.
Treatment of the inoculated mice began nine days after inoculation with the cancer cells. Inoculated mice were divided into four distinct treatment groups.
Antibody treatments were administered via intraperitoneal (i.p.) injection daily at a dose of 1 mg/kg. Cisplatin was administered twice weekly at a dose of 2 mg/kg (Groups 2 and 4). […] During the course of treatment, mice were observed once weekly using an in vivo imaging system (IVIS). Further, mouse body weight was measured twice weekly to update appropriate dosage amounts. At the end of the treatment period, the mice were sacrificed, and organs and tissues were collected for performance of immunohistochemistry analysis.

mouse CD36 = biological target: T1, mouse CD36 (Mus musculus, UniProt Q08857); test: ELISA binding to plate-coated mouse CD36; conditions: recombinant mouse CD36 coated plates
T1 construct: purchased Sino Biological 50422-M08H
Description: (§1) To perform ELISA assays, 96-well ELISA plates were coated over night with human CD36 (Sino Biological, reference 10752-H08H) or mouse CD36 (Sino Biological, reference 50422-M08H) recombinant proteins at a concentration of 0.25 mg/ml. After two washes with PBS, plates were blocked with 4% skimmed milk in PBS for 1 hour at 37° C. Blocking solution was discarded and plates were washed five times with 200 μl/well PBS-Tween20 (0.5%). Primary antibodies were either omitted (control blocking solution treatment) or mixed in blocking solution at several dilutions ranging from 0.01 nM to 0.5 μM. The primary antibody solutions were added to the wells and incubated over night at 4° C. After 5 washes with 200 ul/well of PBS-Tween20 (0.5%), plates were incubated for 1 hour at room temperature with a goat anti-mouse HRP-conjugated antibody (Abeam, reference ab97235) diluted 1:2000 in blocking solution. Plates were then washed 5 times with 200 μl/well of PBS-Tween20 (0.5%), incubated with 100 μl/well TMB and detected after 10 minutes, 30 minutes, or 60 minutes with a spectrophotometer at a wave length of 630 nm.

CD36 = CD36 (Homo sapiens, UniProt P16671); test: ELISA binding to plate-coated human CD36; parameters: purchased Sino Biological 10752-H08H; conditions: recombinant human CD36 coated plates
Description: as §1

[1] = biological target: T2, cells overexpressing human CD36 (Homo sapiens, UniProt P16671); test: FACS binding to cells overexpressing human CD36; conditions: serial dilution up to 100 nM
T2 construct: expressed in transfected cells
Description: For FACS analysis, cells were trypsinized, collected in a 15 mL tube and diluted in washing buffer (2% FBS in PBS). Cells were then centrifuged at 1500 rpm for 5 min at 4° C., supernatant was discarded, and cells were resuspended in fresh washing buffer. Anti-CD36 antibodies were either omitted (control wash buffer treatment) or serially diluted in washing buffer (dilution range up to 100 nM), and then added to the cells. Incubation was performed on ice for 1 hour. Cells were then centrifuged at 1500 rpm for 5 min at 4° C., supernatant was discarded, and cells were resuspended in fresh washing buffer. Finally, cells were incubated with a […] (BV421 Rat Anti-Mouse IgA, Becton Dickinson, reference 743293) diluted 1:100 in washing buffer, washed and analysed by FACS.

T2 sequence (P16671 whole entry): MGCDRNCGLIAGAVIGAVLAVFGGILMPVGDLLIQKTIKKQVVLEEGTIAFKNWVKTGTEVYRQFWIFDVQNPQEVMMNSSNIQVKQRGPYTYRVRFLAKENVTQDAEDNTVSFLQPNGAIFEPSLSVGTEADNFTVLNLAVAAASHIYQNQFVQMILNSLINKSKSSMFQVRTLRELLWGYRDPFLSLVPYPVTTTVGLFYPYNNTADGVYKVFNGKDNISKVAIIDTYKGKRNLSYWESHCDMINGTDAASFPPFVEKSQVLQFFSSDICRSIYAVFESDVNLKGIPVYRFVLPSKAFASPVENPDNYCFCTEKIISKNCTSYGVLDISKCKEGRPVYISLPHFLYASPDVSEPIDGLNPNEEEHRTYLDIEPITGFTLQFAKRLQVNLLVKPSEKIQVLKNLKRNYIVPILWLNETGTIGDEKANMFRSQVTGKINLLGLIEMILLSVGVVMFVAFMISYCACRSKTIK
T1 sequence (Q08857 30-439 limits assumed): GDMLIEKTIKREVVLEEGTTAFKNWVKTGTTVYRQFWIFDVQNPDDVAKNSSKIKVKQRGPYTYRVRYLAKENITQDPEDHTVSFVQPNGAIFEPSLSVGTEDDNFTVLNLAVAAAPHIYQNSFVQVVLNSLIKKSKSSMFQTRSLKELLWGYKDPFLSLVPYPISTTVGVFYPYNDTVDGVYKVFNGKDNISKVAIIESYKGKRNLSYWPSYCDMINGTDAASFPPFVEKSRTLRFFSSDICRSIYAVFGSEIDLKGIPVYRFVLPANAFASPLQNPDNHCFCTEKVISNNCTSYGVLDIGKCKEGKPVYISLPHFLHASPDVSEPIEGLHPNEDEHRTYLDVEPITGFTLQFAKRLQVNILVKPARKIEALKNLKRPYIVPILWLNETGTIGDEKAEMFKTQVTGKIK
Sequence of CD36 (P16671 30-439 limits assumed): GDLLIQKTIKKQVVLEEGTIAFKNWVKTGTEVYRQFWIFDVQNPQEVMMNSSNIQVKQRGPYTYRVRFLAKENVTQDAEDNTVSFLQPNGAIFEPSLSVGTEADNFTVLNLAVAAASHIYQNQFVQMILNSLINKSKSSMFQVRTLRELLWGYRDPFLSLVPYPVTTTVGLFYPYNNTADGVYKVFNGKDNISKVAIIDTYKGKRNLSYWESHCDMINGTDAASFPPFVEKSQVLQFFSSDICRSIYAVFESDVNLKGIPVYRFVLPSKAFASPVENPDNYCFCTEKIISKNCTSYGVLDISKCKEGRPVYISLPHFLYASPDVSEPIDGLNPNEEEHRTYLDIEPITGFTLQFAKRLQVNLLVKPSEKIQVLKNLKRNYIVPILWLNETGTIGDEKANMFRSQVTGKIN

Molecule: N.N.[Cl][Pt][Cl] [cisplatin, reference compound]
size of lung metastases (Detroit 562 cells): did reduce the size
mice in which metastasis into lymph nodes was prevented (FaDu cells; eight tested mice per group): one of the eight
effect on primary tumor (IVIS imaging and H&E staining) (FaDu cells; antibody 1 mg/kg i.p. daily, cisplatin 2 mg/kg twice weekly): inhibited tumor growth

binding to mouse CD36 in ELISA (mouse CD36): did not interact
binding to human CD36 in ELISA (CD36): did not interact
B1: ONA-0-v2: murine IgA antibody; heavy chain SEQ ID NO: 5, light chain SEQ ID NO: 9 (antibody)
heavy: QVQLKQSGADLVRPGASVKLSCKASGYTFTDYYINWVKQRPGQGLEWIARIYPGSGNTYYNEKFKGKATLTAEKSSSTAYMQLSSLTSEDSAVYFCARGIGGGFGMDYWGQGTSVTVSSESARNPTIYPLTLPPVLCSDPVIIGCLIHDYFPFGTMNVTWGKSGKDITTVNFPPALASGGRYTMSSQLTLPAVECPEGESVKCSVQHDSNPVQELDVNCSPTPPPPITIPSCQPSLSLQRPALEDLLLGSDASITCTLNGLRNPEGAAFTWEPSTGKDAVQKKAAQNSCGCYSVSSVLPGCAERWNSGASFKCTVTHPESGTLTGTIAKVTVNTFPPQVHLLPPPSEELALNELLSLTCLVRAFNPKEVLVRWLHGNEELSPESYLVFEPLKEPGEGATTYLVTSVLRVSAETWKQGDQYSCMVGHEALPMNFTQKTIDRLSGKPTNVSVSVIMSEGDGICY
light: NIVMTQSPKSMSMSVGERVTLTCKASENVVTYVSWYQQKPEQSPKLLIYGASNRYTGVPDRFTGSGSATDFTLTISSVQAEDLADYHCGQGYSYPYTFGGGTKLEIKRADAAPTVSIFPPSSEQLTSGGASVVCFLNNFYPKDINVKWKIDGSERQNGVLNSWTDQDSKDSTYSMSSTLTLTKDEYERHNSYTCEATHKTSTSPIVKSFNRNEC
modifications: ONA-0-v1 heavy chain; ONA-0-v2 light chain

binding to cells overexpressing human CD36 (FACS) [1]: bound equivalently
B2: 1G06: chimeric ONA-0-v1 IgG1 antibody; heavy chain SEQ ID NO: 64, light chain SEQ ID NO: 23 (antibody)
heavy: QVQLKQSGADLVRPGASVKLSCKASGYTFTDYYINWVKQRPGQGLEWIARIYPGSGNTYYNEKFKGKATLTAEKSSSTAYMQLSSLTSEDSAVYFCARGIGGGFGMDYWGQGTSVTVSSASTKGPSVFPLAPSSKSTSGGTAALGCLVKDYFPEPVTVSWNSGALTSGVHTFPAVLQSSGLYSLSSVVTVPSSSLGTQTYICNVNHKPSNTKVDKKVEPKSCDKTHTCPPCPAPESTRGPSVFLFPPKPKDTLMISRTPEVTCVVVDVSHEDPEVKFNWYVDGVEVHNAKTKPREEQYNSTYRVVSVLTVLHQDWLNGKEYKCKVSNKALPAPIEKTISKAKGQPREPQVYTLPPSRDELTKNQVSLTCLVKGFYPSDIAVEWESNGQPENNYKTTPPVLDSDGSFFLYSKLTVDKSRWQQGNVFSCSVMHEALHNHYTQKSLSLSPGK
light: SIVMTQTPKFLLVSAGDRITITCKASQSVSDDVAWYQQKPGQSPKLLIYYASNRYTGVPDRFTGSGYGTDFTFTISTVQAEDLAVYFCQQDYSSPLTFGAGTKLEIKRTVAAPSVFIFPPSDEQLKSGTASVVCLLNNFYPREAKVQWKVDNALQSGNSQESVTEQDSKDSTYSLSSTLTLSKADYEKHKVYACEVTHQGLSSPVTKSFNRGEC
